Reference: patent publication US20260183304A1, “COMBINATION OF A TYROSINE KINASE INHIBITOR AND A PRO-INFLAMMATORY AGENT FOR TREATING CANCER” (MDX Management LLC, priority 2022, published 2026)

Experiments:
SIRPα = SIRPα ITIMs phosphorylation and SHP-1 association in macrophages activated by proinflammatory stimuli; type: cell-based; conditions: macrophage activation by proinflammatory stimuli or cancer therapies
From the text: As shown, proinflammatory stimuli (TLR agonists, proinflammatory cytokines IL-1β, IL-6, IL-12, IL-17, IL-18, TNFα, IFNγ, etc., and cancer therapies) induce SIRPα ITIMs phosphorylation and exclusive association of SHP-1 (not SHP-2). Anti-inflammatory cytokine stimulation also induces SIRPα ITIMs phosphorylation but association with SHP-2.

[1] = system: macrophage SHP-1 activity; experiment: Macrophage SHP-1 (PTP) activity induced by αTLR and cancer cell ligation; type: cell-based, human; conditions: induced by αTLR (CpG, PolyIC, R848) and SW620 cancer cell ligation
Description: . After incubation for 15 minutes at 37° C., cells were gently washed to remove the majority of SW620, followed by lysis of macrophage using Hank's buffer (pH 7.2) containing 1% Triton and 1 mM PMSF. Protein tyrosine phosphatase (PTP) activity was assayed with […] Hank's buffer at 37° C.
(§1) In vitro assays. Macrophage response to αTLR was assayed in the presence of cancer cell ligation and with or without TK inhibitor. Macrophage SHP-1 activity (PTP activity), macrophage expression of antigen presentation machinery and proinflammatory cytokines were assayed.
(§2) The same in vitro macrophage stimulation in the present of cancer cell ligation experimental system as in Example 1 was used.
Specifically, an in vitro macrophage functional assay was set up in the presence of cancer cell (SW620) ligation of macrophage iRs. […]. In vivo anti-tumor efficacies with the combination of αTLR were shown in (FIG. 9C).

macrophages [2] = experiment: Macrophage proinflammatory cytokine production with αTLR and cancer cell ligation; type: cell-based, human and murine; conditions: αTLR-induced, in presence of cancer cell ligation
Description: (§3) After incubation for 15 minutes at 37° C., cells were gently washed to remove the majority of SW620, followed by lysis of macrophage using Hank's buffer (pH 7.2) containing 1% Triton and 1 mM PMSF. Protein tyrosine phosphatase (PTP) activity was assayed with […] Hank's buffer at 37° C.
as §1, §2

macrophages [3] = experiment: Macrophage expression of cell surface antigen presentation machinery with αTLR and cancer cell ligation; type: cell-based, human and murine; conditions: αTLR-induced, in presence of cancer cell ligation
Description: as §3, §1, §2

[4] = system: MC38, KPC and LLC tumor models; experiment: Syngeneic murine tumor models, TKi alone or with proinflammatory activators; type: in vivo, mice; conditions: for anti-tumor efficacy, alone/monotherapy: TKi alone
Lck = Lck (Homo sapiens, UniProt P06239); conditions: information vendor provided; cited from earlier work
Lyn = Lyn (Homo sapiens, UniProt P07948); conditions: information vendor provided; cited from earlier work
SIRPα and PirB = experiment: iR phosphorylation and binding to SHP-1 in bone-marrow-derived macrophages; conditions: TLR agonist- and cancer ligation-induced, murine bone-marrow-derived macrophages
LLC lung cancer = experiment: LLC tumor treatment and TME analyses; type: in vivo, mice; conditions: combined with αTLR
Description: Three types of solid tumors were tested: 1) MC38 colorectal carcinoma, 2) KPC pancreatic ductal adenocarcinoma, and 3) LLC lung cancer. Tumors were subcutaneously engrafted (s.c.), and treatments started when palpable tumors formed >=200 mm^3. […] In most experiments, TKi and αTLR agonist were together suspended in 500 μl PBS and administered via s.c. at a location distant form tumor. The intermittent treatment scheme was designed to administrate the first cycle, 2× pulse administrations (d1 and d2), an intermittent period (3-7 days), followed by a second cycle treatment.
In vivo tests for anti-tumor efficacy.

c-Src = c-Src (Homo sapiens, UniProt P12931); conditions: information vendor provided; cited from earlier work
[5] = system: malignant melanoma and advanced malignancies; conditions: Phase I, cited from earlier work
[6] = system: TLR7/8 overexpressing pancreatic cancer cell line; conditions: R848-stimulation; cited from earlier work

Sequence of Lyn (P07948 whole entry, species assumed): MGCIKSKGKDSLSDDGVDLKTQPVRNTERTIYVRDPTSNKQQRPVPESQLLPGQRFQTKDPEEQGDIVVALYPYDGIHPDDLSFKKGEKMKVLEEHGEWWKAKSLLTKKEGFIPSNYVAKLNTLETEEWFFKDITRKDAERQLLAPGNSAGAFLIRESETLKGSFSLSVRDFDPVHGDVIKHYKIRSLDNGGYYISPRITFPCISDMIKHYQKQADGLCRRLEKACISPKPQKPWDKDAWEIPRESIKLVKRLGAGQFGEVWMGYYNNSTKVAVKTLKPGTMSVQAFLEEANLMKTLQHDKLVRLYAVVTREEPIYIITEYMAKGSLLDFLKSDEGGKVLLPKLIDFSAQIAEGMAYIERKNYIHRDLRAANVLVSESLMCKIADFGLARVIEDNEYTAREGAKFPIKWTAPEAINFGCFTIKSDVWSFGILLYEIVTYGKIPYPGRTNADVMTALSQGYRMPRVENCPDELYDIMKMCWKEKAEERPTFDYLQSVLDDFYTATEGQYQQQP
Sequence of Lck (P06239 whole entry, species assumed): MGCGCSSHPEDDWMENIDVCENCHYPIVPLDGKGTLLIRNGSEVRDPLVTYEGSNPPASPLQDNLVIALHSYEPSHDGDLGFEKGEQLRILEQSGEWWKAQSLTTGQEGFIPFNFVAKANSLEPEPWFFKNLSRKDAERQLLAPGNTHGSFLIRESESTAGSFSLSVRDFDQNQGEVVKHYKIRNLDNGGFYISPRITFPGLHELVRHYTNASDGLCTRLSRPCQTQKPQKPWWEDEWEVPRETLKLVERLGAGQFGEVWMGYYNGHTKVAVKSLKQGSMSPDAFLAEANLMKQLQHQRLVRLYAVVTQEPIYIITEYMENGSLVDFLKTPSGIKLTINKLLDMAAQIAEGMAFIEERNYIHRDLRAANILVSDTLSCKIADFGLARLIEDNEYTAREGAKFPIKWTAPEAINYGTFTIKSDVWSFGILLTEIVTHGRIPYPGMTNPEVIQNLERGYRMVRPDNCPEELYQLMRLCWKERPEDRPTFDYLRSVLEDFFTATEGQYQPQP
Sequence of c-Src (P12931 whole entry): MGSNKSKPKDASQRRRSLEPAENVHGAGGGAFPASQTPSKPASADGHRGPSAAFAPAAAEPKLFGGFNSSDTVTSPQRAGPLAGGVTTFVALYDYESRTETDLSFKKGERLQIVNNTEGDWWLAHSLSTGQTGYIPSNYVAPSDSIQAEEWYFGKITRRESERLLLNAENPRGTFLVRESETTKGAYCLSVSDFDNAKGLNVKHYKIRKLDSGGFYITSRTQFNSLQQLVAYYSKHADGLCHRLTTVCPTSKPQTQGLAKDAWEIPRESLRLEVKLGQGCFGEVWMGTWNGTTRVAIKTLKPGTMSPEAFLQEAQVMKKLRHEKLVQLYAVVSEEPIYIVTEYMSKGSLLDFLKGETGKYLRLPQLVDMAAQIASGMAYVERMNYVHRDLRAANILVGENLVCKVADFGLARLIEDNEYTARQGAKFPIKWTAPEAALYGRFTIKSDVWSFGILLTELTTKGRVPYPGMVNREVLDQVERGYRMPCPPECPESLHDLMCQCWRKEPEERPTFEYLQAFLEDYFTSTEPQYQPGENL

Compound | SIRPα cytoplasmic ITIMs phosphorylation and SIRPα association with SHP-1 (SIRPα) | macrophage SHP-1 activity (PTP activity) [1] | production of proinflammatory cytokines (TNFα, IL-6, CXCL1) (macrophages [2]) | expression of cell surface antigen presentation machinery (macrophages [3]) | suppression of LLC tumor (LLC lung cancer) | other results
C/C(O)=C(\C#N)C(=O)Nc1cc(Br)ccc1Br [LFMA-13] | not | – | – | – | – | –
CN1CCN([C@H]2CC[C@H](n3cc(-c4ccc(Oc5ccccc5)cc4)c4c(N)ncnc43)CC2)CC1 [RK-20449, 7-((1R,4R)-4-(4-methylpiperazin-1-yl)cyclohexyl)-5-(4-phenoxyphenyl)-7H-pyrrolo[2,3-d]pyrimidin-4-amine] | – | dose-dependently diminished | marked increases | marked increases | – | anti-tumor efficacy, alone/monotherapy [4]: not effective; IC50 (Lck): < 3 nM; IC50 (Lyn): < 3 nM; iR phosphorylation and binding to SHP-1 (SIRPα and PirB): depleted
Cc1ccc(-c2nn(C(C)(C)C)c3ncnc(N)c23)cc1 [PP1] | diminished | – | – | – | – | –
Cc1nc(Nc2ncc(C(=O)Nc3cc(NC(=O)c4cccc(C(F)(F)F)c4)ccc3C)s2)cc(N2CCN(CCO)CC2)n1 [UM-164] | – | capability of diminishing | Neither UM164 nor R406 enabled | elevated | not | IC50 (c-Src): 2.7 nM
O.O.O.O.O.O.O.O.O.O=C([O-])[C@@H]1[O][Sb]2([O-])([O][Sb]34([OH])[O][C@H]([C@H](O)CO)[C@H]([O]3)[C@H](C(=O)[O-])[O]4)[O][C@H]([C@H](O)CO)[C@@H]1[O]2.[Na+].[Na+].[Na+] [SSG, sodium stibogluconate] | – | – | – | – | – | effect against tumor development ([5]; in combination with interferons followed or not by chemotherapy): no effect; patients with most common toxic side-effects [5]: up to 68%
CC(C)CCC[C@@H](C)[C@H]1CC[C@H]2[C@@H]3CCC4C[C@H](N)CC[C@]4(C)[C@H]3CC[C@]12C (stereo partly drawn) [3Ac] | – | – | – | – | not | –
CCOCc1nc2c(N)nc3ccccc3c2n1CC(C)(C)O [R848] | – | – | – | – | – | cell proliferation [6]: increased; chemosensitivity [6]: reduced
CC(C)(C)n1nc(-c2ccc(Cl)cc2)c2c(N)ncnc21 [PP2] | diminished | – | – | – | – | –
Cc1nc(Nc2ncc(C(=O)Nc3c(C)cccc3Cl)s2)cc(N2CCN(CCO)CC2)n1 [Dasatinib, N-(2-chloro-6-methylphenyl)-2-[[6-[4-(2-hydroxyethyl)-1-piperazinyl]-2-methyl-4-pyrimidinyl]amino]-5-thiazole carboxamide monohydrate] | – | dose-dependently diminished | marked increases | marked increases | – | anti-tumor efficacy, alone/monotherapy [4]: not effective; angiogenesis in tumors ([4]; mouse, in vivo): inhibits; TME immune populations (CD8+ T cells, NK cells, macrophages, MDSC) (LLC lung cancer; LLC tumors, 3-day post treatment, various doses): dose-dependent effect of elevating CD8+ T cells and NK cells and reducing macrophages and MDSC; iR phosphorylation and binding to SHP-1 (SIRPα and PirB): depleted
COc1cc(Nc2ncc(F)c(Nc3ccc4c(n3)NC(=O)C(C)(C)O4)n2)cc(OC)c1OC [R406] | – | capability of diminishing | Neither UM164 nor R406 enabled | elevated | effectively suppressed | intratumoral CD8+ T cell expansion (LLC lung cancer): induced intratumoral CD8+ T cell expansion; intratumoral macrophage antigen presentation (LLC lung cancer): induced intratumoral macrophages for antigen presentation
